Reference: patent publication US9242997B2, “Tricyclic pyrazole sulphonamide compunds and methods of making and using same” (Zafgen, Inc., priority 2011, dated 2016)

Biological target: T1, Human recombinant MetAP2 (Homo sapiens, UniProt P50579)
T1 construct: made in house; host or cells: Sf9 insect cells
Assay: recombinant human MetAP2 inhibition assay (MAS substrate, amino acid oxidase/Amplex red fluorescence)
Type: biochemical
Details: manganese enzyme, 30 minutes at 25° C., pH 7.5, 0.75 mM MAS substrate, 1% DMSO
Method: Compounds are tested for their capacity to inhibit recombinant human MetAP2 activity using the following assay.
Human recombinant MetAP2 expressed in Sf9 cells followed by affinity purification and EDTA treatment to remove endogenous active site cation was dialysed against MnCl2 to produce the manganese enzyme used in the assay. The assay was carried out for 30 minutes at 25° C. in 50 mM HEPES buffer containing 100 mM NaCl, pH 7.5 the presence of 0.75 mM Methionine-Alanine-Serine (MAS) substrate and 50 μg/ml amino acid oxidase using a dilution of purified MetAP2 giving>3-fold signal: noise. Cleavage of the substrate by MetAP2 and oxidation of free methionine by amino acid oxidase was detected and quantified using fluorescence generated by Amplex red (10-acetyl-3,7-dihydroxyphenoxazine) in combination with horseradish peroxidase which detects H2O2 released during the oxidation step. The fluorescent signal was detected using a multiwell fluorimeter. Compounds were diluted in DMSO prior to addition to assay buffer, the final DMSO concentration in the assay being 1%.
The IC50 is defined as the concentration at which a given compound achieves 50% inhibition of control. IC50 values are calculated using the XLfit software package (version 2.0.5).

T1 sequence (P50579 whole entry): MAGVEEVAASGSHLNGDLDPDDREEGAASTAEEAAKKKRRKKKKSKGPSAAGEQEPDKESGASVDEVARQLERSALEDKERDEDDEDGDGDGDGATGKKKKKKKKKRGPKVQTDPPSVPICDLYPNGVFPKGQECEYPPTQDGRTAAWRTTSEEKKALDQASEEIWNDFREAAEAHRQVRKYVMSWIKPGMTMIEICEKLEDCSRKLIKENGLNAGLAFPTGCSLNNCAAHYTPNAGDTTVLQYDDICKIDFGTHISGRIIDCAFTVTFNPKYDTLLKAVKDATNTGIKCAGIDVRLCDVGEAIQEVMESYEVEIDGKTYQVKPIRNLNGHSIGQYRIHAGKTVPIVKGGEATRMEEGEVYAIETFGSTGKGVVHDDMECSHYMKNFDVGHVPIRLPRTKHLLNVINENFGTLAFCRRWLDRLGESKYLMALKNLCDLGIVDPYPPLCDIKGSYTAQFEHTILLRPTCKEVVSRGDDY

| IC50 | Structure (SMILES) |
| --- | --- |
| 50 to 500 nM | CCN(CC)C/C=C\c1cc(F)ccc1S(=O)(=O)Nc1ccc2c(c1C(=O)O)CCn1nccc1-2 [Example 3, 8-[2-((Z)-3-Diethylaminoprop-1-enyl)-4-fluorobenzenesulfonylamino]-5,6-dihydropyrazolo[5,1-a]isoquinoline-7-carboxylic acid] |
| < 50 nM | CCN(CC)C/C=C\c1cc(F)ccc1S(=O)(=O)Nc1ccc2c(c1C(=O)O)OCc1cccn1-2 [Example 2, 7-[2-((Z)-3-Diethylaminoprop-1-enyl)-4-fluorobenzenesulfonylamino]-4H-benzo[b]pyrrolo[1,2-d][1,4]oxazine-6-carboxylic acid] |
| < 50 nM | CCN(CC)C/C=C\c1cc(F)ccc1S(=O)(=O)Nc1ccc2c(c1C(=O)O)OCc1nccn1-2 [Example 4, 7-[2-((Z)-3-Diethylaminoprop-1-enyl)-4-fluorobenzenesulfonylamino]-4H-5-oxa-3,9b-diazacyclopenta[a]naphthalene-6-carboxylic acid] |
| < 50 nM | CCN(CC)C/C=C\c1cc(F)ccc1S(=O)(=O)Nc1ccc2c(ccn3nccc23)c1C(=O)O [Example 1, 8-[2-((Z)-3-Diethylaminoprop-1-enyl)-4-fluorobenzenesulfonylamino]-pyrazolo[5,1-a]isoquinoline-7-carboxylic acid] |
